According to ChEMBL document CHEMBL1201862, “PubChem BioAssay data set” (2004):
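Step 1: Grow cells in 96-well plates. Step 2: Expose to compound for 48 hours at 5 concentrations. Step 3: Interpolate endpoints linearly; if unreached, use highest concentration. GI50: concentration for 50% inhibition of growth.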 The source made the active and inactive calls. Cut-off read from the data, not from the text of the source: active = GI50 up to about 1.1 µM and inactive = higher.

Columns and labels:
Experiment in all cases: growth of human tumour cells (NCI), 48 h
786-0 = system: 786-0
A498 = system: A498
COLO 205 = system: COLO 205
HCT-116 = system: HCT-116
HCT-15 = system: HCT-15
HOP-62 = system: HOP-62
HOP-92 = system: HOP-92
HT-29 = system: HT-29
MOLT-4 = system: MOLT-4
Malme-3M = system: Malme-3M
NCI-H226 = system: NCI-H226
OVCAR-4 = system: OVCAR-4
SF-268 = system: SF-268
SK-MEL-28 = system: SK-MEL-28
SK-MEL-2 = system: SK-MEL-2
SW-620 = system: SW-620
OVCAR-8 = system: OVCAR-8
SF-539 = system: SF-539

Which results are given for `Nc1ncnc2c1ncn2[C@]1(CO)C=C(CO)C(O)C1O` (stereo partly drawn)?
GI50 (786-0): > 100 µM (inactive); GI50 (A498): > 100 µM (inactive); GI50 (COLO 205): > 100 µM (inactive); GI50 (HCT-116): 73.1 µM (inactive); GI50 (HCT-15): > 100 µM; GI50 (HOP-62): 52.5 µM (inactive); GI50 (HOP-92): > 100 µM (inactive); GI50 (HT-29): > 100 µM (inactive); GI50 (MOLT-4): > 100 µM (inactive); GI50 (Malme-3M): > 100 µM (inactive); GI50 (NCI-H226): > 100 µM (inactive); GI50 (OVCAR-4): > 100 µM (inactive); GI50 (SF-268): > 100 µM (inactive); GI50 (SK-MEL-28): > 100 µM (inactive); GI50 (SK-MEL-2): > 100 µM (inactive); GI50 (SW-620): > 100 µM (inactive)

For `CC1(C)OC2CC3COC(=O)C3CC2O1` (stereo not drawn), which GI50 (786-0) is on record?
Its GI50 is > 100 µM (inactive).

What about the GI50 (A498) of the same compound?
The GI50 was > 100 µM (inactive).

And the GI50 (COLO 205)?
Its GI50 is > 100 µM (inactive).

What about the GI50 (HCT-116) of the same compound?
The GI50 was > 100 µM (inactive).

And the GI50 (HCT-15)?
The GI50 was over 100 µM.

What about the GI50 (HOP-62) of the same compound?
The GI50 was > 100 µM (inactive).

What about the GI50 (HOP-92) of the same compound?
The GI50 was > 100 µM (inactive).

What about the GI50 (HT-29) of the same compound?
The GI50 was > 100 µM (inactive).

And the GI50 (MOLT-4)?
The GI50 was > 100 µM (inactive).

And the GI50 (Malme-3M)?
The GI50 was > 100 µM (inactive).

What about the GI50 (NCI-H226) of the same compound?
The GI50 was > 100 µM (inactive).

What about the GI50 (OVCAR-4) of the same compound?
Its GI50 is > 100 µM (inactive).

What about the GI50 (OVCAR-8) of the same compound?
Its GI50 is > 100 µM (inactive).

What about the GI50 (SF-268) of the same compound?
Its GI50 is > 100 µM (inactive).

And the GI50 (SF-539)?
The GI50 was > 100 µM (inactive).

What about the GI50 (SK-MEL-28) of the same compound?
Its GI50 is > 100 µM (inactive).

What about the GI50 (SK-MEL-2) of the same compound?
Its GI50 is > 100 µM (inactive).

What about the GI50 (SW-620) of the same compound?
The GI50 was > 100 µM (inactive).

Which results are given for `CCOC(=N)/C(=C1\OC(=N)C(c2ccc(Cl)cc2)=C1O)c1ccc(Cl)cc1`?
GI50 (786-0): 17.8 µM (inactive); GI50 (A498): 17.8 µM (inactive); GI50 (COLO 205): 16.6 µM (inactive); GI50 (HCT-116): 16.9 µM (inactive); GI50 (HOP-62): 22.5 µM (inactive); GI50 (HOP-92): 18.5 µM (inactive); GI50 (HT-29): 23.2 µM (inactive); GI50 (MOLT-4): 17.9 µM (inactive); GI50 (Malme-3M): 14.3 µM (inactive); GI50 (NCI-H226): 20.5 µM (inactive); GI50 (OVCAR-4): 11.8 µM (inactive); GI50 (OVCAR-8): 15.4 µM (inactive); GI50 (SF-268): 14.5 µM (inactive); GI50 (SF-539): 16.5 µM (inactive); GI50 (SK-MEL-28): 16 µM (inactive); GI50 (SW-620): 17.6 µM (inactive)

What does the source list for `CC(=O)O/N=C/c1ncccc1CO`?
GI50 (786-0): > 100 µM (inactive); GI50 (A498): > 100 µM (inactive); GI50 (COLO 205): > 100 µM (inactive); GI50 (HCT-116): > 100 µM (inactive); GI50 (HCT-15): > 100 µM; GI50 (HOP-62): > 100 µM (inactive); GI50 (HOP-92): > 100 µM (inactive); GI50 (HT-29): > 100 µM (inactive); GI50 (MOLT-4): > 100 µM (inactive); GI50 (Malme-3M): > 100 µM (inactive); GI50 (NCI-H226): > 100 µM (inactive); GI50 (OVCAR-4): > 100 µM (inactive); GI50 (OVCAR-8): > 100 µM (inactive); GI50 (SF-268): > 100 µM (inactive); GI50 (SF-539): > 100 µM (inactive); GI50 (SK-MEL-28): > 100 µM (inactive); GI50 (SK-MEL-2): > 100 µM (inactive); GI50 (SW-620): > 100 µM (inactive)

Which GI50 (786-0) does the source give for `Cc1ccc(NC(=O)CCc2nc(N)nc(N)c2-c2ccccc2)cc1C` here?
Its GI50 is > 100 µM (inactive).

And the GI50 (A498)?
Its GI50 is > 100 µM (inactive).

What about the GI50 (COLO 205) of the same compound?
Its GI50 is > 100 µM (inactive).

What about the GI50 (HCT-116) of the same compound?
Its GI50 is > 100 µM (inactive).

What about the GI50 (HCT-15) of the same compound?
The GI50 was over 100 µM.

And the GI50 (HOP-62)?
Its GI50 is > 100 µM (inactive).

And the GI50 (HOP-92)?
Its GI50 is > 100 µM (inactive).

What about the GI50 (HT-29) of the same compound?
Its GI50 is > 100 µM (inactive).

And the GI50 (MOLT-4)?
The GI50 was > 100 µM (inactive).

What about the GI50 (Malme-3M) of the same compound?
Its GI50 is > 100 µM (inactive).

And the GI50 (NCI-H226)?
The GI50 was > 100 µM (inactive).

And the GI50 (OVCAR-4)?
Its GI50 is > 100 µM (inactive).

What about the GI50 (OVCAR-8) of the same compound?
The GI50 was > 100 µM (inactive).

And the GI50 (SF-268)?
Its GI50 is > 100 µM (inactive).

What about the GI50 (SF-539) of the same compound?
Its GI50 is > 100 µM (inactive).

And the GI50 (SK-MEL-28)?
Its GI50 is > 100 µM (inactive).

And the GI50 (SK-MEL-2)?
The GI50 was > 100 µM (inactive).

What about the GI50 (SW-620) of the same compound?
Its GI50 is > 100 µM (inactive).

`COc1cc2nc(NCCCCCNC(=O)c3ccco3)nc(N)c2cc1OC` was tested. Which GI50 (786-0) did it give?
The GI50 was 21.5 µM (inactive).

What about the GI50 (A498) of the same compound?
Its GI50 is 80.2 µM (inactive).

What about the GI50 (COLO 205) of the same compound?
The GI50 was 18.2 µM (inactive).

And the GI50 (HCT-15)?
The GI50 was over 100 µM.

What about the GI50 (HOP-62) of the same compound?
The GI50 was 24.2 µM (inactive).

And the GI50 (HOP-92)?
Its GI50 is 12.2 µM (inactive).

And the GI50 (HT-29)?
Its GI50 is 33.9 µM (inactive).

And the GI50 (MOLT-4)?
The GI50 was 24.8 µM (inactive).

What about the GI50 (Malme-3M) of the same compound?
The GI50 was 17.4 µM (inactive).

What about the GI50 (NCI-H226) of the same compound?
Its GI50 is 32.7 µM (inactive).

And the GI50 (OVCAR-4)?
Its GI50 is 29.3 µM (inactive).

What about the GI50 (OVCAR-8) of the same compound?
The GI50 was 33.7 µM (inactive).

And the GI50 (SF-268)?
Its GI50 is 36.2 µM (inactive).

And the GI50 (SF-539)?
Its GI50 is 19.6 µM (inactive).

What about the GI50 (SK-MEL-28) of the same compound?
Its GI50 is 19.2 µM (inactive).

And the GI50 (SK-MEL-2)?
The GI50 was 19.7 µM (inactive).

And the GI50 (SW-620)?
The GI50 was 22.5 µM (inactive).
